# Activity calls are given as the source filed them. No cut-off for these calls is given here.
# Key:
# [1] = Antiaggregating activity in Homo sapiens (human) platelet rich plasma assessed as disaggregation of ADP-induced platelet aggregation at 0.125 uM incubated for 4 min prior to ADP-induction measured for 5.5 min by turbidometric analysis relative to control; type: functional
# Platelet [2] = assay: Antiaggregating activity in Homo sapiens (human) platelet rich plasma assessed as inhibition of arachidonic acid-induced platelet aggregation at 0.5 uM incubated for 4 min prior to arachidonic acid-induction measured for 5.5 min by turbidometric analysis; type: functional
# Platelet [3] = assay: Antiaggregating activity in Homo sapiens (human) platelet rich plasma assessed as inhibition of arachidonic acid-induced platelet aggregation at 1 uM incubated for 4 min prior to arachidonic acid-induction measured for 5.5 min by turbidometric analysis; type: functional, cell-free
# Platelet [4] = assay: Antiaggregating activity in Homo sapiens (human) platelet rich plasma assessed as inhibition of adrenaline-induced platelet aggregation at 0.5 uM incubated for 4 min prior to adrenaline-induction measured for 5.5 min by turbidometric analysis; type: functional, cell-free
# Platelet [5] = assay: Antiaggregating activity in Homo sapiens (human) platelet rich plasma assessed as inhibition of adrenaline-induced platelet aggregation at 1 uM incubated for 4 min prior to adrenaline-induction measured for 5.5 min by turbidometric analysis; type: functional, cell-free
# Platelet [6] = assay: Antiaggregating activity in Homo sapiens (human) platelet rich plasma assessed as inhibition of adrenaline-induced platelet aggregation at 0.125 uM incubated for 4 min prior to adrenaline-induction measured for 5.5 min by turbidometric analysis; type: functional, cell-free
# Platelet [7] = assay: Antiaggregating activity in Homo sapiens (human) platelet rich plasma assessed as inhibition of adrenaline-induced platelet aggregation at 0.25 uM incubated for 4 min prior to adrenaline-induction measured for 5.5 min by turbidometric analysis; type: functional, cell-free
# Platelet [8] = assay: Antiaggregating activity in Homo sapiens (human) platelet rich plasma assessed as inhibition of ADP-induced platelet aggregation at 0.25 uM incubated for 4 min prior to ADP-induction measured for 5.5 min by turbidometric analysis; type: functional, cell-free
# [9] = Antiaggregating activity in Homo sapiens (human) platelet rich plasma assessed as ristocetin-induced platelet aggregation at 1 uM incubated for 4 min prior to ristocetin-induction measured for 5.5 min by turbidometric analysis (reference value: 65 to 99%); type: functional
# [10] = Antiaggregating activity in Homo sapiens (human) platelet rich plasma assessed as ristocetin-induced platelet aggregation at 0.5 uM incubated for 4 min prior to ristocetin-induction measured for 5.5 min by turbidometric analysis (reference value: 65 to 99%); type: functional
# Platelet [11] = assay: Antiaggregating activity in Homo sapiens (human) platelet rich plasma assessed as inhibition of ADP-induced platelet aggregation at 0.5 uM incubated for 4 min prior to ADP-induction measured for 5.5 min by turbidometric analysis; type: functional, cell-free
# Platelet [12] = assay: Antiaggregating activity in Homo sapiens (human) platelet rich plasma assessed as inhibition of ADP-induced platelet aggregation at 1 uM incubated for 4 min prior to ADP-induction measured for 5.5 min by turbidometric analysis; type: functional, cell-free
# Platelet [13] = assay: Antiaggregating activity in Homo sapiens (human) platelet rich plasma assessed as inhibition of collagen-induced platelet aggregation at 0.25 uM incubated for 4 min prior to collagen-induction measured for 5.5 min by turbidometric analysis; type: functional
# [14] = Antiaggregating activity in Homo sapiens (human) platelet rich plasma assessed as collagen-induced platelet aggregation at 0.125 uM incubated for 4 min prior to collagen-induction measured for 5.5 min by turbidometric analysis (reference value: 50 to 98%); type: functional
# Platelet [15] = assay: Antiaggregating activity in Homo sapiens (human) platelet rich plasma assessed as inhibition of collagen-induced platelet aggregation at 0.5 uM incubated for 4 min prior to collagen-induction measured for 5.5 min by turbidometric analysis; type: functional, cell-free
# Platelet [16] = assay: Antiaggregating activity in Homo sapiens (human) platelet rich plasma assessed as inhibition of collagen-induced platelet aggregation at 1 uM incubated for 4 min prior to collagen-induction measured for 5.5 min by turbidometric analysis; type: functional, cell-free
# [17] = Antiaggregating activity in Homo sapiens (human) platelet rich plasma assessed as disaggregation of ristocetin-induced platelet aggregation at 0.25 uM incubated for 4 min prior to ristocetin-induction measured for 5.5 min by turbidometric analysis relative to control; type: functional
# [18] = Antiaggregating activity in Homo sapiens (human) platelet rich plasma assessed as ristocetin-induced platelet aggregation at 0.125 uM incubated for 4 min prior to ristocetin-induction measured for 5.5 min by turbidometric analysis (reference value: 65 to 99%); type: functional
# Platelet [19] = assay: Antiaggregating activity in Homo sapiens (human) platelet rich plasma assessed as inhibition of arachidonic acid-induced platelet aggregation at 0.125 uM incubated for 4 min prior to arachidonic acid-induction measured for 5.5 min by turbidometric analysis; type: functional, cell-free
# Platelet [20] = assay: Antiaggregating activity in Homo sapiens (human) platelet rich plasma assessed as inhibition of arachidonic acid-induced platelet aggregation at 0.25 uM incubated for 4 min prior to arachidonic acid-induction measured for 5.5 min by turbidometric analysis; type: functional, cell-free
# [21] = Antiaggregating activity in Homo sapiens (human) platelet rich plasma assessed as disaggregation of ADP-induced platelet aggregation at 0.25 uM incubated for 4 min prior to ADP-induction measured for 5.5 min by turbidometric analysis relative to control; type: functional
# [22] = Antiaggregating activity in Homo sapiens (human) platelet rich plasma assessed as ADP-induced platelet aggregation at 0.1 uM incubated for 4 min prior to ADP-induction measured for 5.5 min by turbidometric analysis (reference value: 54 to 88%); type: functional
# Platelet [23] = assay: Antiaggregating activity in Homo sapiens (human) platelet rich plasma assessed as inhibition of adrenaline-induced platelet aggregation at 0.1 uM incubated for 4 min prior to adrenaline-induction measured for 5.5 min by turbidometric analysis; type: functional, cell-free
# [24] = Antiaggregating activity in Homo sapiens (human) platelet rich plasma assessed as collagen-induced platelet aggregation at 0.1 uM incubated for 4 min prior to collagen-induction measured for 5.5 min by turbidometric analysis (reference value: 50 to 98%); type: functional
# [25] = Antiaggregating activity in Homo sapiens (human) platelet rich plasma assessed as disaggregation of ristocetin-induced platelet aggregation at 0.5 uM incubated for 4 min prior to ristocetin-induction measured for 5.5 min by turbidometric analysis relative to control; type: functional
# [26] = Antiaggregating activity in Homo sapiens (human) platelet rich plasma assessed as ristocetin-induced platelet aggregation at 0.1 uM incubated for 4 min prior to ristocetin-induction measured for 5.5 min by turbidometric analysis (reference value: 65 to 99%); type: functional
# Platelet [27] = assay: Antiaggregating activity in Homo sapiens (human) platelet rich plasma assessed as inhibition of arachidonic acid-induced platelet aggregation at 0.1 uM incubated for 4 min prior to arachidonic acid-induction measured for 5.5 min by turbidometric analysis; type: functional, cell-free
Compound,inhibition (Platelet [2]),inhibition (Platelet [3]),inhibition (Platelet [4]),inhibition (Platelet [5]),inhibition (Platelet [7]),Activity [9] [%],inhibition (Platelet [11]),inhibition (Platelet [12]),inhibition (Platelet [13]),inhibition (Platelet [15]),inhibition (Platelet [16]),Activity [17] [%],inhibition (Platelet [20]),also measured
Cl.O=C(C1CCCN(Cc2ccc(F)cc2)C1)N1CCN(c2ccccc2Cl)CC1 (stereo not given),Active,Active,Active,Active,Active,40,Active,Active,Active,Active,Active,68,Active,Activity [1]: 80%; inhibition (Platelet [6]): Active; inhibition (Platelet [8]): Active; Activity [10]: 67%; Activity [14]: 72%; Activity [18]: 100%; inhibition (Platelet [19]): Active
Br.O=C(C1CCCN(Cc2ccc([N+](=O)[O-])cc2)C1)N1CCN(c2ccccc2Cl)CC1 (stereo not given),Active,Active,Active,Active,Active,23,Active,Active,Active,Active,Active,58,Active,Activity [21]: 28%; Activity [22]: 57%; inhibition (Platelet [23]): Active; Activity [24]: 58%; Activity [25]: 50%; Activity [26]: 66%; inhibition (Platelet [27]): Active

# — ChEMBL document CHEMBL3046822, “Synthesis, antiplatelet aggregation activity, and molecular modeling study of novel substituted-piperazine analogues” (2011)
